PubChem BioAssay AID608 (Sanford-Burnham Center for Chemical Genomics, 2007)
The source made the active and inactive calls. No rule for the calls is given here.

Target: Peptidyl-prolyl cis-trans isomerase FKBP1A (Homo sapiens) (UniProt P62942)
Test: small-molecule binding to FKBP12 – biophysical, NMR detection (AID 608)
Details: purified FKBP12

Peptidyl-prolyl cis-trans isomerase FKBP1A (Homo sapiens), sequence (P62942 whole entry, looked up): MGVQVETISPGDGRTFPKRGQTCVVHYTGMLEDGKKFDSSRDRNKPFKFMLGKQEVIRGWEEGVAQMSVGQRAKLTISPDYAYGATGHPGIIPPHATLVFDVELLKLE

SMILES: O=C1CSC(=Nc2ccc(C(=O)O)cc2)N1
- Kd: > 4 mM (inactive)

SMILES: CCc1ccccc1NC(=O)c1ccoc1C
- Kd: > 4 mM (inactive)

SMILES: COc1ccc(/C=C2/N=C(N)SC2=O)cc1
- Kd: > 4 mM (inactive)

SMILES: O=C1NC2NC(=O)N(c3ccccc3)C2N1 (configuration not stated)
- Kd: > 4 mM (inactive)

SMILES: COc1cc(O)c(C(C)=O)c(OC)c1
- Kd: > 4 mM (inactive)

SMILES: OCc1ccccc1N1CCOCC1
- Kd: > 4 mM (inactive)

SMILES: Cc1noc(C)c1C(=O)N1CCN(c2ncccn2)CC1
- Kd: > 4 mM (inactive)

SMILES: ON=c1ccc2nc3ccccc3nc2cc1
- Kd: > 4 mM (inactive)

SMILES: Nc1nncn1C(=O)c1c(Cl)cccc1Cl
- Kd: > 4 mM (inactive)

SMILES: O=C(O)CC1NCCNC1=O (configuration not stated)
- Kd: > 4 mM (inactive)

SMILES: O=C(NCc1cccc(Cl)c1)c1cccnc1
- Kd: > 4 mM (inactive)

SMILES: O=C1CS/C(=N/N=C/c2cccs2)N1
- Kd: > 4 mM (inactive)

SMILES: CC(=O)Nc1ccc(C(=O)NC2=NCCS2)cc1
- Kd: > 4 mM (inactive)

SMILES: O=C(Nc1cccc2ncccc12)c1cccnc1
- Kd: > 4 mM (inactive)

SMILES: CCN=Cc1c(O)n(-c2ccccc2C)c(=O)[nH]c1=O
- Kd: > 4 mM (inactive)

SMILES: CN(C)N1C(=O)C2C3C=CC(O3)C2C1=O (configuration not stated)
- Kd: > 4 mM (inactive)

SMILES: Cc1ccc(C(=O)Nc2c[nH]c(=O)[nH]c2=O)cc1
- Kd: > 4 mM (inactive)

SMILES: O=c1[nH]c2c(c(=O)n1C1CCCCC1)CCC2
- Kd: > 4 mM (inactive)

SMILES: O=C(Cc1c(F)cccc1Cl)Nc1ccncc1
- Kd: > 4 mM (inactive)

SMILES: Cc1ccc(CN2CCN(C(=O)C3CCC3)CC2)cc1
- Kd: > 4 mM (inactive)

SMILES: O=C1CC(C(=O)O)c2ccccc21 (configuration not stated)
- Kd: > 4 mM (inactive)

SMILES: CC(CCC(=O)O)[C@H]1CCC2C3CC[C@@H]4CCCC[C@]4(C)C3CC[C@@]21C (some centres not stated)
- Kd: > 4 mM (inactive)

SMILES: c1cncc(C(N2CCOCC2)N2CCOCC2)c1
- Kd: > 4 mM (inactive)

SMILES: Cc1cc(C(=O)NCc2cccnc2)cs1
- Kd: > 4 mM (inactive)

SMILES: CNC(=O)n1ccc(C(=O)N2CCCCC2)n1
- Kd: > 4 mM (inactive)

SMILES: OC1CCN(C(=S)NC2CC2)CC1
- Kd: > 4 mM (inactive)

SMILES: O=C(O)CN(CCCc1ccccc1)CC(=O)O
- Kd: > 4 mM (inactive)

SMILES: N#CCc1nc2ccccc2s1
- Kd: > 4 mM (inactive)

SMILES: COc1cccc(NC(=O)c2cnn(C)c2Cl)c1
- Kd: > 4 mM (inactive)

SMILES: NC(=O)CSc1ccc2nnc(-c3ccccc3)n2n1
- Kd: > 4 mM (inactive)

SMILES: Cc1c(C(=O)Nn2cnnc2)oc2ccccc12
- Kd: > 4 mM (inactive)

SMILES: CC(=O)O[C@@H]1C=C[C@@]2(C)C(C[C@@H](OC(C)=O)[C@@]3(C)C4=CC(=O)O[C@@H](c5ccoc5)[C@]4(C)CCC23)C1(C)C (some centres not stated)
- Kd: > 4 mM (inactive)

SMILES: CC(C)(C)c1cc(NC(=O)c2cccnc2)no1
- Kd: > 4 mM (inactive)

SMILES: Nc1cccc(S(=O)(=O)N2CCOCC2)c1
- Kd: > 4 mM (inactive)

SMILES: Cc1[nH]c2ccccc2c1CN(C)C
- Kd: > 4 mM (inactive)

SMILES: Cc1nnc2sc(-c3csc4c3CCCC4)nn12
- Kd: > 4 mM (inactive)

SMILES: Cc1cc(Cl)ccc1OC(C)C(=O)N1CCOCC1 (configuration not stated)
- Kd: inactive

SMILES: COc1ccc(N/C(N)=N\c2nc(C)cc(C)n2)cc1
- Kd: > 4 mM (inactive)

SMILES: Cc1nc2nc(Cc3ccccc3)[nH]n2c(=O)c1Cl
- Kd: > 4 mM (inactive)

SMILES: CCCNC(CC(=O)Nc1cccnc1)C(=O)O (configuration not stated)
- Kd: > 4 mM (inactive)

SMILES: OCc1nccn1Cc1ccccc1
- Kd: > 4 mM (inactive)

SMILES: O=S(=O)(Nc1ccc(Cl)c(Cl)c1)N1CCOCC1
- Kd: inactive

SMILES: Cc1nc(-c2ccc(NS(C)(=O)=O)cc2)cs1
- Kd: > 4 mM (inactive)

SMILES: CC(=O)Nc1ccccc1OCC(N)=O
- Kd: > 4 mM (inactive)

SMILES: O=C(O)CCN1CCOCC1
- Kd: > 4 mM (inactive)

SMILES: S=C(c1ccc(N2CCOCC2)cc1)N1CCCCC1
- Kd: > 4 mM (inactive)

SMILES: CCC(C)C(=O)O[C@H]1[C@H](O)C2C(CN3CC(C)CCC3[C@@]2(C)O)C2C[C@]34O[C@]5(O)C(OC(=O)C(C)(O)C(C)O)CC[C@@]3(C)C5C(OC(C)=O)[C@@H](OC(C)=O)C4[C@@]21O (some centres not stated)
- Kd: > 4 mM (inactive)

SMILES: COC(=O)c1ccc2snnc2c1
- Kd: > 4 mM (inactive)

SMILES: CC(=O)OCC(=O)[C@@]1(O)CCC2C3CC[C@@H]4C[C@H](O)CC[C@]4(C)C3C(=O)C[C@@]21C (some centres not stated)
- Kd: > 4 mM (inactive)

SMILES: COc1ccc2c(c1OC)C(=O)N(c1ncn[nH]1)C2
- Kd: > 4 mM (inactive)

SMILES: COc1cc(/C=C/C(=O)/C=C(O)/C=C/c2ccc(O)c(OC)c2)ccc1O
- Kd: > 4 mM (inactive)

SMILES: Cn1cnnc1SCCCNC(=O)Nc1ncccn1
- Kd: > 4 mM (inactive)

SMILES: NS(=O)(=O)c1ccc(NC(=O)/C=C\C(=O)O)cc1
- Kd: > 4 mM (inactive)

SMILES: O=c1ccn([C@@H]2O[C@H](COP(=O)(O)OP(=O)(O)OP(=O)(O)O)[C@@H](O)[C@H]2O)c(=O)[nH]1
- Kd: > 4 mM (inactive)

SMILES: COc1cc(C(C)=O)ccc1OC(=O)N1CCOCC1
- Kd: > 4 mM (inactive)

SMILES: C=C1C2CC[C@@]3(C)[C@H](c4ccoc4)OC(=O)C[C@]13O[C@H]1C[C@H](OC(C)=O)C(C)(C)[C@H](CC(=O)OC)[C@@]21C
- Kd: > 4 mM (inactive)

SMILES: O=C(c1cccc(C(F)(F)F)c1)N1CCCC1
- Kd: > 4 mM (inactive)

SMILES: O=C(O)C1CSC2(CCCCC2)N1 (configuration not stated)
- Kd: > 4 mM (inactive)

SMILES: COc1ccc(S(N)(=O)=O)cc1
- Kd: > 4 mM (inactive)

SMILES: COc1ccccc1/C=C/CN1CCOCC1
- Kd: > 4 mM (inactive)

SMILES: Cn1ccc(C(=O)NC(=S)NN2CCOCC2)n1
- Kd: > 4 mM (inactive)

SMILES: Clc1ccccc1OCCn1ccnc1
- Kd: > 4 mM (inactive)

SMILES: C[C@H]1CCCC(=O)CCC/C=C/c2cc(O)cc(O)c2C(=O)O1
- Kd: > 4 mM (inactive)

SMILES: O=C(NC(=S)NC1CCSC1=O)c1ccco1 (configuration not stated)
- Kd: > 4 mM (inactive)

SMILES: Cc1nn(CC(=O)N2CCCCC2)c(=O)c2ccccc12
- Kd: > 4 mM (inactive)

SMILES: Cc1ncc(C(=O)O)c(-c2ccccc2)n1
- Kd: > 4 mM (inactive)

SMILES: Cc1nn(-c2ccccc2)c(Cl)c1C(N)=O
- Kd: > 4 mM (inactive)

SMILES: CNc1nnc(Cc2csc(N)n2)s1
- Kd: > 4 mM (inactive)

SMILES: OC(c1ccccc1)c1ccccn1 (configuration not stated)
- Kd: > 4 mM (inactive)

SMILES: O=[N+]([O-])c1cccc(-c2nnco2)c1
- Kd: > 4 mM (inactive)

SMILES: CN(C)C(=O)Nc1ccc(F)cc1F
- Kd: > 4 mM (inactive)

SMILES: C=C1C([C@]2(C)C(CC(=O)OC)[C@@](C)(COC(C)=O)OC(=O)C[C@@H]2OC(C)=O)[C@@H](OC=O)[C@H](OC(=O)C(O)C(C)CC)[C@@]2(C)[C@H](c3ccoc3)CC(=O)C12O (some centres not stated)
- Kd: > 4 mM (inactive)

SMILES: Cn1nnc2cc(CN)ccc21
- Kd: > 4 mM (inactive)

SMILES: CN1C(=O)N(C)C2NC(=O)NC21 (configuration not stated)
- Kd: > 4 mM (inactive)

SMILES: CNC(=O)c1cc2cccc(OC)c2oc1=O
- Kd: > 4 mM (inactive)

SMILES: O=C1C2C3C=CC(O3)C2C(=O)N1c1ccccc1 (configuration not stated)
- Kd: > 4 mM (inactive)

SMILES: CC(=O)O[C@H]1CC[C@@]2(C)C(C[C@@H](OC(C)=O)[C@@]3(C)C4=CC(=O)O[C@@H](c5ccoc5)[C@]4(C)CCC23)C1(C)C (some centres not stated)
- Kd: > 4 mM (inactive)

SMILES: Cc1cc(O)c2c(c1)C(=O)c1cccc(O)c1C2=O
- Kd: > 4 mM (inactive)

SMILES: Nc1cc2ccccc2cn1
- Kd: > 4 mM (inactive)

SMILES: CC(=O)c1nnc2cc(C)nn2c1C
- Kd: > 4 mM (inactive)

SMILES: Cc1nc2ccccc2c(=O)n1/N=C/c1ccncc1
- Kd: > 4 mM (inactive)

SMILES: Cc1onc(-c2c(Cl)cccc2Cl)c1C(N)=O
- Kd: > 4 mM (inactive)

SMILES: Cc1ccc(CO)o1
- Kd: > 4 mM (inactive)

SMILES: CN(c1ccc(C(=O)N2CCCCC2)cc1)S(C)(=O)=O
- Kd: > 4 mM (inactive)

SMILES: Cc1occc(=O)c1O
- Kd: > 4 mM (inactive)

SMILES: CC(=O)Nc1cc(C(F)(F)F)ccc1N1CCOCC1
- Kd: > 4 mM (inactive)

SMILES: C=CCNC(=O)c1nn2cccnc2c1Cl
- Kd: > 4 mM (inactive)

SMILES: COC(=O)[C@@H]1OC(=O)[C@H]2O[C@@]23[C@@]1(C)CCC1[C@@]2(C)CCC(=O)C(C)(C)C2C[C@@H](OC(C)=O)[C@]13C (some centres not stated)
- Kd: > 4 mM (inactive)

SMILES: CCOC(=O)c1cc2ccccc2oc1=O
- Kd: > 4 mM (inactive)

SMILES: c1ccc2c(NC3=NCCS3)cccc2c1
- Kd: > 4 mM (inactive)

SMILES: O=C1Nc2ccccc2C1(O)Cc1ccncc1 (configuration not stated)
- Kd: > 4 mM (inactive)

SMILES: O=C(O)Cn1cc(C(F)(F)F)ccc1=O
- Kd: > 4 mM (inactive)

SMILES: O=C1CS/C(=N/S(=O)(=O)c2ccccc2)N1
- Kd: > 4 mM (inactive)

SMILES: COc1cc([C@@H]2c3cc4c(c(O)c3C[C@H]3COC(=O)[C@@H]32)OCO4)cc(OC)c1OC
- Kd: > 4 mM (inactive)

SMILES: CC(C)(C)c1cc(N)n[nH]1
- Kd: > 4 mM (inactive)

SMILES: O=C(O)CCC(=O)c1c[nH]c2ccccc12
- Kd: > 4 mM (inactive)

SMILES: COc1ccc(S(=O)(=O)Nc2ccccn2)c(C)c1C
- Kd: > 4 mM (inactive)

SMILES: CN1CN/C(=N\[N+](=O)[O-])N(c2ccccc2)C1
- Kd: > 4 mM (inactive)

SMILES: CNC(C)[C@H](O)c1ccccc1 (some centres not stated)
- Kd: > 4 mM (inactive)

SMILES: Cc1ccccc1NC(=O)c1ccccc1
- Kd: > 4 mM (inactive)

SMILES: O=c1ccnc(Nc2ccccc2O)[nH]1
- Kd: > 4 mM (inactive)

SMILES: S=c1ccc(N2CCCCC2)n[nH]1
- Kd: > 4 mM (inactive)

SMILES: Cc1cc(SCC(=O)c2ccccc2)nc(=O)[nH]1
- Kd: > 4 mM (inactive)

SMILES: OCC1CCCCCN1 (configuration not stated)
- Kd: > 4 mM (inactive)

SMILES: NC(=O)c1ccc(N2C(=O)C=CC2=O)cc1Cl
- Kd: > 4 mM (inactive)

SMILES: CC1(C)N=C2C(=[N+]1[O-])CCC/C2=N\O
- Kd: > 4 mM (inactive)

SMILES: O=C(O)c1cc2ccccc2s1
- Kd: > 4 mM (inactive)

SMILES: Cc1cc(NC(=O)Cc2c(F)cccc2Cl)no1
- Kd: > 4 mM (inactive)

SMILES: Nc1[nH]c(=S)[nH]c(=O)c1-c1ccccc1
- Kd: > 4 mM (inactive)

SMILES: O=S(=O)(Nc1cc(Cl)cc(Cl)c1)N1CCOCC1
- Kd: inactive

SMILES: COCCn1cnc2cc(C)c(C)cc21
- Kd: > 4 mM (inactive)

SMILES: Cc1c(/C=N/O)cnn1C
- Kd: > 4 mM (inactive)

SMILES: CC(=O)c1cnc(Nc2nc(C)c3ccccc3n2)nc1C
- Kd: > 4 mM (inactive)

SMILES: O=C1C2C3CCC(O3)C2C(=O)N1c1cccc(F)c1 (configuration not stated)
- Kd: > 4 mM (inactive)

SMILES: Cc1nn(C)c(C)c1C(=O)O
- Kd: > 4 mM (inactive)

SMILES: CN1C2CCC1CC(OC(=O)C(CO)c1ccccc1)C2 (configuration not stated)
- Kd: > 4 mM (inactive)

SMILES: O=C(Nn1c(=S)[nH]c2ccccc2c1=O)c1ccncc1
- Kd: > 4 mM (inactive)
